Drawing on patent US12084461B2, “Bicyclic heteroaryl derivatives” (Hoffmann-La Roche Inc., priority 2018, dated 2024), this text covers IC50 for one compound.

Each structure is given as a SMILES string. pIC50: −log10 of the molar value.

In general, pIC50 refers to −log10 of the IC50, conventionally taken in molar units.

This test relates to γ-secretase. The test can be described thus: Cellular γ-secretase assay (inhibition of Aβ42 secretion, AlphaLisa). The test is classed as cell-based. Conditions: human neuroglioma H4 cells overexpressing human APP695 Swedish double mutation, 24 h compound incubation. How it is done:
Human neuroglioma H4 cells overexpressing human APP695 with the Swedish double mutation (K595N/M596L) were plated at 30,000 cells/well/100 μL in 96-well plates in IMDM containing 10% FCS, 0.2 mg/L Hygromycin B and incubated at 37° C., 5% CO2. 3-4 h post plating, compounds are a diluted in media and 50 μL is added as […] concentrate to achieve the final concentration. Compound incubation is performed for 24 h. Final doses typically range from 4 μM down to 0.0013 μM in half-log steps resulting in an eight-point dose response curve.
Appropriate controls using vehicle only and reference compound were applied to this assay. The final concentration of Me2SO was 0.4%.
After incubation at 37° C., 5% CO2, the supernatant was subjected to quantification of secreted Aβ42 by the means of an AlphaLisa assay kit (Human Amyloid beta 1-42 Kit: Cat # AL203C, Perkin Elmer). 20 μL of the cell culture supernatant was transferred to an assay plate. Then 10 μL, of a mixture of the AlphaLisa coupled capture antibody and the biotinylated detection antibody was added and incubated for 3 h at RT while softly shaking the assay plate. After a further addition of 20 μL of the Donor beads the assay plate was incubated for 30 min at RT and constant shaking without exposure to direct light. The assay plate was then read on a Paradigm AlphaLisa Reader using the build-in program with excitation at 680 nm and emission at 570 nm. The measured signals were then used to calculate IC50 values for inhibition of Aβ42 secretion by nonlinear regression fit analysis using XLfit 5.3 software (from IDBS company).
A general note: Bead proximity is the source of the signal in Alpha formats.

Regarding `COc1cc(N2C[C@H]3CC[C@@H](C2)[C@@H]3Nc2nc3n(n2)CCCO[C@@H]3c2ccc(F)c(F)c2F)ccn1` [Example 37, (9R)—N-[(1R,5S)-3-(2-methoxy-4-pyridyl)-3-azabicyclo[3.2.1]octan-8-yl]-9-(2,3,4-trifluorophenyl)-5,6,7,9-tetrahydro-[1,2,4]triazolo[5,1-c][1,4]oxazepin-2-amine], the pIC50 was 7.80.
